Experimental findings from PubChem BioAssay (NCI) are described below.

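Cultured in 96-well plates, cells were exposed to test compound for 48 hours across five concentrations. GI50 = concentration required for 50% inhibition of growth. Definition used: TGI = concentration required for complete inhibition of growth.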

The subject of the first test is EKVX NSCLC. Kind of test: NCI anticancer screen, dose series, 48 h.
Consider `CN(CCCn1c2c(c3ccccc3c1=O)C(=O)c1ccccc1-2)CCCn1c2c(c3ccccc3c1=O)C(=O)c1ccccc1-2`, for which the GI50 is 23.5 µM and the TGI was greater than 100 µM.
In the same order, the values of `C(#Cc1ccccc1C#Cc1cccs1)c1cccs1` are 73.1 µM and greater than 100 µM.
The molecule `COc1ccc(C2=CC(c3ccc4c(c3)OCO4)c3c(c4ccccc4oc3=O)O2)cc1OC` (stereo unspecified) showed a TGI greater than 100 µM.
In the case of `C=C1C(=O)O[C@H]2[C@H]1CC/C(COC(=O)NCc1cn(C)c3ccccc13)=C\CC[C@@]1(C)O[C@@H]21`, the GI50 is 1.85 µM and the TGI was 4.32 µM.
Take `CCS(CC)(CC)CC1CCCC2=CCC(P(=O)(c3ccccc3)c3ccccc3)CC21` (stereo unspecified): the TGI came to 28.4 µM.
The molecule `Cn1cc(C(=O)NCCC(=N)N)cc1NC(=O)C1=[N+](C)C=C(NC(=O)c2cccc(C(=O)NC3=CC(C(=O)Nc4cc(C(=O)NCCC(=N)N)cn4C)=[N+](C)C3)c2)C1` displayed a TGI greater than 100 µM.

For another test, the system named is A549 NSCLC. Kind of test: NCI anticancer screen, dose series, 48 h.
For the molecule `CC(C)(C)c1ccc(Oc2nccc(-c3c(-c4ccc(F)cc4)ncn3C3CCNCC3)n2)cc1`, the GI50 was 3.55 µM and the TGI was found to be 6.9 µM.
`O=C(O)C(/C=C/c1ccccc1)c1ccccc1` (stereo unspecified) yielded a TGI greater than 100 µM.
`COc1ccc(-c2cn(-c3cc(OC)c(OC)c(OC)c3)c(SCc3ccccc3)n2)cc1OC`: the GI50 is greater than 100 µM and the TGI is greater than 100 µM.
As for `COc1ccc(-c2nc(-c3nc4ccc(OC)cc4[nH]3)c3ccccn23)cc1`, the GI50 is 3.17 µM and the TGI stood at 46.7 µM.
With `Cc1ccc(S(=O)(=O)N/N=C/c2c(O)ccc3ccccc23)cc1`, the TGI was greater than 100 µM.
`COc1cc(NC(C)CCCNC2CN3CCC2CC3)c2ncccc2c1` (stereo unspecified): the GI50 is 12.9 µM and the TGI was 27.5 µM.
Taken in the same sequence, the figures for `CN[C@@H](C)C(=O)N[C@H](C(=O)N1CCC[C@H]1C(=O)Nc1snnc1-c1ccccc1)C1CCCCC1` were 71.6 µM and greater than 100 µM.
Take `FC(F)(F)c1ccc(Nc2nc(-c3c(C(F)(F)F)nc4ccccn34)cs2)cc1`: the GI50 is 0.0625 µM and the TGI came to 10.6 µM.
On to `COc1cc([N+](=O)[O-])c(OC)cc1-c1nc2sc(Cl)cn2c1/C(N)=N/C(=N)N`, for which the GI50 is 18.4 µM and the TGI is greater than 53 µM.
Turning to `COc1cc(CSc2nc3ccc(C)cc3c(=O)n2-c2ccccc2)cc(OC)c1OC`, the GI50 is 1.59 µM and the TGI was greater than 100 µM.
In the same order, the values of `CN(CCCn1c2c(c3ccccc3c1=O)C(=O)c1ccccc1-2)CCCn1c2c(c3ccccc3c1=O)C(=O)c1ccccc1-2` are 1.13 µM and 4.21 µM.
Regarding `C(#Cc1ccccc1C#Cc1cccs1)c1cccs1`, the GI50 was 89.9 µM and the TGI was greater than 100 µM.
Take `COc1ccc(C2=CC(c3ccc4c(c3)OCO4)c3c(c4ccccc4oc3=O)O2)cc1OC` (stereo unspecified): the TGI is greater than 100 µM.
As for `C=C1C(=O)O[C@H]2[C@H]1CC/C(COC(=O)NCc1cn(C)c3ccccc13)=C\CC[C@@]1(C)O[C@@H]21`, the GI50 is 2.17 µM and the TGI was 7.14 µM.
Consider `CCS(CC)(CC)CC1CCCC2=CCC(P(=O)(c3ccccc3)c3ccccc3)CC21` (stereo unspecified), for which the TGI stood at 18 µM.
As to `CC(=O)OCC1OC(n2cnc(C(N)=S)c2N)C(OC(C)=O)C1OC(C)=O` (stereo unspecified), the TGI is greater than 100 µM.
On to `Cn1cc(C(=O)NCCC(=N)N)cc1NC(=O)C1=[N+](C)C=C(NC(=O)c2cccc(C(=O)NC3=CC(C(=O)Nc4cc(C(=O)NCCC(=N)N)cn4C)=[N+](C)C3)c2)C1`, for which the TGI was greater than 100 µM.
Turning to `Nc1c(C(=O)c2cccc(-c3ccncc3)c2)cnn1-c1ccc(F)cc1F`, the GI50 is 6.01 µM and the TGI was greater than 25 µM.

A further test deals with OVCAR-3 ovarian. Kind of test: NCI anticancer screen, dose series, 48 h.
Consider `CC(C)(C)c1ccc(Oc2nccc(-c3c(-c4ccc(F)cc4)ncn3C3CCNCC3)n2)cc1`, for which the GI50 is 4.25 µM and the TGI stood at 7.77 µM.
For `O=C(O)C(/C=C/c1ccccc1)c1ccccc1` (stereo unspecified), the TGI was greater than 100 µM.
With `COc1ccc(-c2cn(-c3cc(OC)c(OC)c(OC)c3)c(SCc3ccccc3)n2)cc1OC`, the GI50 is greater than 100 µM and the TGI is greater than 100 µM.
For the molecule `COc1ccc(-c2nc(-c3nc4ccc(OC)cc4[nH]3)c3ccccn23)cc1`, the GI50 is 4.97 µM and the TGI was found to be 62.1 µM.
`Cc1ccc(S(=O)(=O)N/N=C/c2c(O)ccc3ccccc23)cc1` showed a TGI of 44.2 µM.
With `COc1cc(NC(C)CCCNC2CN3CCC2CC3)c2ncccc2c1` (stereo unspecified), the GI50 is 3.22 µM and the TGI came out at 11.4 µM.
Taken in the same sequence, the figures for `CN[C@@H](C)C(=O)N[C@H](C(=O)N1CCC[C@H]1C(=O)Nc1snnc1-c1ccccc1)C1CCCCC1` were 58.5 µM and greater than 100 µM.
Turning to `FC(F)(F)c1ccc(Nc2nc(-c3c(C(F)(F)F)nc4ccccn34)cs2)cc1`, the GI50 is 0.0264 µM and the TGI came out at 0.0787 µM.
For the molecule `COc1cc([N+](=O)[O-])c(OC)cc1-c1nc2sc(Cl)cn2c1/C(N)=N/C(=N)N`, the GI50 was 1.72 µM and the TGI is 3.45 µM.
In the same order, the values of `COc1cc(CSc2nc3ccc(C)cc3c(=O)n2-c2ccccc2)cc(OC)c1OC` are 1.95 µM and greater than 27.3 µM.
Turning to `C(#Cc1ccccc1C#Cc1cccs1)c1cccs1`, the GI50 is 57.1 µM and the TGI is greater than 100 µM.
In the same order, the values of `C=C1C(=O)O[C@H]2[C@H]1CC/C(COC(=O)NCc1cn(C)c3ccccc13)=C\CC[C@@]1(C)O[C@@H]21` are 1.03 µM and 2.3 µM.
As for `CCS(CC)(CC)CC1CCCC2=CCC(P(=O)(c3ccccc3)c3ccccc3)CC21` (stereo unspecified), the TGI amounted to 30.5 µM.
The same measure, in the same setting: next, `CC(=O)OCC1OC(n2cnc(C(N)=S)c2N)C(OC(C)=O)C1OC(C)=O` (stereo unspecified): greater than 100 µM; `Cn1cc(C(=O)NCCC(=N)N)cc1NC(=O)C1=[N+](C)C=C(NC(=O)c2cccc(C(=O)NC3=CC(C(=O)Nc4cc(C(=O)NCCC(=N)N)cn4C)=[N+](C)C3)c2)C1`: greater than 100 µM.
Take `Nc1c(C(=O)c2cccc(-c3ccncc3)c2)cnn1-c1ccc(F)cc1F`: the GI50 was 9.08 µM and the TGI is greater than 25 µM.
